In patent US9938261B2, “Heterocyclic compounds and methods of use thereof” (AMBIT BIOSCIENCES CORPORATION, priority 2011, dated 2018):
Where two headings read alike, the source gives them in different places.

Tests used:
[1] = target: T1, KIT (Homo sapiens, UniProt P10721); assay: Competition binding assay, KIT Kd
T1 construct: made in house
Outline: (§1)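 Read-out is quantitative PCR of kinase recovered from affinity beads after competition with test compound. Binding reached equilibrium over 1 hour at room temperature; Kd values come from eleven-point threefold serial dilutions.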

[2] = target: T2, PDGFRβ (Homo sapiens, UniProt P09619); assay: Competition binding assay, PDGFRβ Kd
T2 construct: made in house
Outline: as §1

[3] = target: CSF1R (Homo sapiens, UniProt P07333); assay: Competition binding assay, CSF1R Kd; parameters: made in house
Outline: as §1

[4] = target: kinase panel containing either 386 or 392 distinct kinases; assay: Kinase selectivity score S10 from competition binding panel
Description: Competition binding assays used herein were developed, validated and performed as described in Fabian et al., Nature Biotechnology 2005, 23, 329-336. Kinases were produced as fusions to T7 phage (See, Fabian et al. or WO04/015142) or alternatively, the kinases were expressed in HEK-293 cells and subsequently tagged with DNA for PCR detection (See, WO08/005310). For the binding assays, streptavidin-coated magnetic beads were treated with biotinylated affinity ligands for 30 min at room temperature to generate affinity resins. The liganded beads were blocked with excess biotin and washed with blocking buffer (SeaBlock (Pierce), 1% BSA, 0.05% Tween 20, 1 mM DTT) to remove unbound ligand and to reduce non-specific binding. Binding reactions were assembled by combining kinase, liganded affinity beads, and test compounds in 1× binding buffer (20% SeaBlock, 0.17×PBS, 0.05% Tween 20, 6 mM DTT). Test compounds were prepared as 100× stocks in DMSO and diluted into the aqueous environment. Kds were determined using an eleven point threefold serial dilutions. DMSO or control compounds were was added to control assays lacking a test compound. Primary screen assays were performed in polypropylene 384-well plates in a final volume of 20-40 μL, while Kd determinations were performed in polystyrene 96-well plates in a final volume of 135 μL. The assay plates were incubated at room temperature with shaking for 1 hour to allow the binding reactions to reach equilibrium, and the affinity beads were washed extensively with wash buffer (1×PBS, 0.05% Tween 20) to remove unbound protein. The beads were then resuspended in elution buffer (1×PBS, 0.05% Tween […] non-biotinylated affinity ligand) and incubated at room temperature with shaking for 30 min. The kinase concentration in the eluates was measured by quantitative PCR.
A selectivity score (S10) is a quantitative measure of selectivity of a compound against a panel of kinases. An S10 was calculated for a compound by dividing the number of kinases found to have a percent of control (DMSO) less than 10 by the total number of distinct kinases tested (excluding mutant variants). Percent of control (POC) is calculated by subtracting the signal of the control compound (POC=0) from the signal of the test compound and dividing the outcome by the signal of DMSO (POC=100) minus the signal of the control compound. For the compounds disclosed herein, S10 scores were obtained by testing the compounds at 10 μM concentration in a kinase panel containing either 386 or 392 distinct kinases.

[5] = target: T3, FLT3 (Homo sapiens, UniProt P36888); assay: Competition binding assay, FLT3 Kd
T3 construct: made in house
T3 sequence (P36888 27-993): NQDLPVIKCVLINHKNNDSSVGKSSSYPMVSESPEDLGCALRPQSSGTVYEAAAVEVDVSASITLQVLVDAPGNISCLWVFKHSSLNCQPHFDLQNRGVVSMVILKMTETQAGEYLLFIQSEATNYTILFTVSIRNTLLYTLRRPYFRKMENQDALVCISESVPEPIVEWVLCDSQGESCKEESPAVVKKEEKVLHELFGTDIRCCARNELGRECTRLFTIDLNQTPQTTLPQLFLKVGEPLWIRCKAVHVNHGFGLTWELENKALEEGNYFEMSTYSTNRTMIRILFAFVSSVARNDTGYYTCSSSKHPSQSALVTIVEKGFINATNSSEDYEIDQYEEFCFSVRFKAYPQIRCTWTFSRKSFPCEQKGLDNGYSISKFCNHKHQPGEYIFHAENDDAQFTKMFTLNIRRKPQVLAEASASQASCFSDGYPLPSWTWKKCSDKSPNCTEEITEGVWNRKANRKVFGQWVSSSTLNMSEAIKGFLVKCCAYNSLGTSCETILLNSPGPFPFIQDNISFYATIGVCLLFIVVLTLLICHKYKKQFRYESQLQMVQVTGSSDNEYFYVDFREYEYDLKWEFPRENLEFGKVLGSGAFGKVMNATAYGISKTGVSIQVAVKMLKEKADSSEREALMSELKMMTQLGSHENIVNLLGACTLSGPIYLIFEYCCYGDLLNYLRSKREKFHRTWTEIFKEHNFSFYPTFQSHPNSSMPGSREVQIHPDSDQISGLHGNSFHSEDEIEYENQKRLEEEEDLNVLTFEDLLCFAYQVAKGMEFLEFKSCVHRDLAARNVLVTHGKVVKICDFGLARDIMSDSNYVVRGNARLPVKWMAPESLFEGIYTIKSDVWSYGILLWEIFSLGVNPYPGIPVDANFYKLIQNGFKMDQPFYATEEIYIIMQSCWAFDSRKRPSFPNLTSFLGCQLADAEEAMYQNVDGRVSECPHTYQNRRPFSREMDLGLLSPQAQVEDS
Outline: as §1

[6] = test system: M-NFS-60 cells; assay: M-NFS-60 cell proliferation assay (Alamar Blue); type: cell-based, mouse; details: Mus musculus, read-out: CSF1R M-NFS-60 CTB:IC50
Outline: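 Mouse M-NFS-60 cells growing on 20 ng/mL M-CSF in RPMI/10% FBS were exposed to compounds (9 half-log concentrations, 0.5% DMSO) for 72 h at 37 °C. Viability read by Alamar Blue fluorescence (ex 560/em 590 nm, 3 h). IC50 = 50% proliferation inhibition versus control, mean of duplicates.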

[7] = compounds at 10 μM, 386 or 392 distinct kinases
[8] = 72 hours incubation, M-CSF 20 ng/mL
[9] = 10 μM, panel of 386 or 392 distinct kinases

Sequence of CSF1R (P07333 20-972): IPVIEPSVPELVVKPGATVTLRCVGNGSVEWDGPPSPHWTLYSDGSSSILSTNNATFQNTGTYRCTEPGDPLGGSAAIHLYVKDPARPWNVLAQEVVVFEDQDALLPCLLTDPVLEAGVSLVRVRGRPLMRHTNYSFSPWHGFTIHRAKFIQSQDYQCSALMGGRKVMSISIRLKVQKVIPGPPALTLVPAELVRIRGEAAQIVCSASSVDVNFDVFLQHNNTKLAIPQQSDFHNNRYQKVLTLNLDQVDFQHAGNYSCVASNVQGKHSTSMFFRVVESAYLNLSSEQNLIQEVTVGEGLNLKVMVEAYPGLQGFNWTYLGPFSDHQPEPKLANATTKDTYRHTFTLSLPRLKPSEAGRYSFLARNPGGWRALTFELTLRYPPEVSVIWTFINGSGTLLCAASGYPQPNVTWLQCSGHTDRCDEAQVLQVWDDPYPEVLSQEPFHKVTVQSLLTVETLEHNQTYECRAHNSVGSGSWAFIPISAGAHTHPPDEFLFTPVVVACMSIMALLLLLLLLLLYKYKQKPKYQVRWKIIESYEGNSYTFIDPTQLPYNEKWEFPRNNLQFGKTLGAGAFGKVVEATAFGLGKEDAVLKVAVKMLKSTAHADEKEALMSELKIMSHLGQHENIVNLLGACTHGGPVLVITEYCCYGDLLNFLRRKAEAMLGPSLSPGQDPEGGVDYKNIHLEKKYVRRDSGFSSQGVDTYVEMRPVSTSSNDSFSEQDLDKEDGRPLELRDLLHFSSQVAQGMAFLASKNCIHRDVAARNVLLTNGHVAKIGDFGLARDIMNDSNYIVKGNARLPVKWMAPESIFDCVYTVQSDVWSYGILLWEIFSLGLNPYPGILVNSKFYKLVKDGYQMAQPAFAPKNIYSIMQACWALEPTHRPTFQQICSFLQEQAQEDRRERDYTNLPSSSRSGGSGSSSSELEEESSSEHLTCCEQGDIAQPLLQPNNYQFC
T1 sequence (P10721 26-976): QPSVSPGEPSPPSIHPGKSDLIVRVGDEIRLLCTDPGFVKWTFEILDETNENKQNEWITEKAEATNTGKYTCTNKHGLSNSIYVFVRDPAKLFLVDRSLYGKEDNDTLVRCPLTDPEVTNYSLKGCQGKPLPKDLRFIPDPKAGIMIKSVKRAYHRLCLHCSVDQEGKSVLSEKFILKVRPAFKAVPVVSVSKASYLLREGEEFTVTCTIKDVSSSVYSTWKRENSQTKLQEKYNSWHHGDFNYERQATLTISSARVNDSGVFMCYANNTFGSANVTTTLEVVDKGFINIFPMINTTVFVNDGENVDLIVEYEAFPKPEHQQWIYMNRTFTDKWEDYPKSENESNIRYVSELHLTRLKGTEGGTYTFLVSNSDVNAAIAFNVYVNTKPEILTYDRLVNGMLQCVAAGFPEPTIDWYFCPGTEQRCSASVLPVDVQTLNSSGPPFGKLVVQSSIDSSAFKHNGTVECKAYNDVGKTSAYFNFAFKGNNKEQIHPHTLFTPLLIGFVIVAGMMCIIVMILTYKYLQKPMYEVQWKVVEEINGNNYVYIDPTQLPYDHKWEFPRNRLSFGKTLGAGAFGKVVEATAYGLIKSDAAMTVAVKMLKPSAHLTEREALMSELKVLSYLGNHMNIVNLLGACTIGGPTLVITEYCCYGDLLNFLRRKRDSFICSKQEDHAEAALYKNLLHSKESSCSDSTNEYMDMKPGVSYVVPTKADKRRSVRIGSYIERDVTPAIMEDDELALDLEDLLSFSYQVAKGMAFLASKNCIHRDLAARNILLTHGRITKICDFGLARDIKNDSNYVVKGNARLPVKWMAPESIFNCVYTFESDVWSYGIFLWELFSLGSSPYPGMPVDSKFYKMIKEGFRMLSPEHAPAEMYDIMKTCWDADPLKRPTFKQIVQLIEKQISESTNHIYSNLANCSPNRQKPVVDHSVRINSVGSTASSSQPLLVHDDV
T2 sequence (P09619 33-1106): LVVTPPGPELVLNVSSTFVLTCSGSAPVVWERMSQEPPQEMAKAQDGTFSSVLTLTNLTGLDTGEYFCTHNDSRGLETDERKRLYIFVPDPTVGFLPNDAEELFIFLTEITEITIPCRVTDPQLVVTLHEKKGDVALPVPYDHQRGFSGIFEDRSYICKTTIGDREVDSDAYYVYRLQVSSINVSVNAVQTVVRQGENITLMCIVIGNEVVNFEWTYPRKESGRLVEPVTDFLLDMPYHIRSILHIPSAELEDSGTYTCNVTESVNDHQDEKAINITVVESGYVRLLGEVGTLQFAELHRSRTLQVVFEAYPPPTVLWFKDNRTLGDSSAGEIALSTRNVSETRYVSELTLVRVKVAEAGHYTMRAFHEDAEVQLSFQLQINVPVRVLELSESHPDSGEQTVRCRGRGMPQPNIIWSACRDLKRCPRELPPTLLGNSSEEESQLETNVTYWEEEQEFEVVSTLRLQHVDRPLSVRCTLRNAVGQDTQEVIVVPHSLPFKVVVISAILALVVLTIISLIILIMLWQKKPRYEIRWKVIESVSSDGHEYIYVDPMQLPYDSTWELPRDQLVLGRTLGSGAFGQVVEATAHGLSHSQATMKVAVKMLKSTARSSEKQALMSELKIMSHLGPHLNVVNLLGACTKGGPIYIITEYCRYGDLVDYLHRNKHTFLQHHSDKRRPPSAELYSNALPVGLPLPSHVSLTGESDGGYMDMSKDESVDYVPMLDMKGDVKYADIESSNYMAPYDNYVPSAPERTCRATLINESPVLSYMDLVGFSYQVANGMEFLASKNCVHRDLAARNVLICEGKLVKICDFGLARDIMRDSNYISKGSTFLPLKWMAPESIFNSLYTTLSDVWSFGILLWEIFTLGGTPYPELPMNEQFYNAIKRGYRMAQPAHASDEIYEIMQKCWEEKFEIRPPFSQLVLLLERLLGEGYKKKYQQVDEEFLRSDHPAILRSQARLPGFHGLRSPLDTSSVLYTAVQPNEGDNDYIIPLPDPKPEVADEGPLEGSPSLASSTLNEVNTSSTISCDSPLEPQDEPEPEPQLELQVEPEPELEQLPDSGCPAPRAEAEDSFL

SMILES	Kd [1] [nM]	Kd [2] [nM]	Kd [3] [nM]	Kinase specificity S(10) [4, 7]	Kd [5] [nM]	Kd ([1]; competition binding) [nM]	Kd ([2]; competition binding) [nM]	Kd ([3]; competition binding) [nM]	Kinase specificity S(10) [4, 9]	Kd ([5]; competition binding) [nM]	IC50 [6, 8] [nM]	IC50 ([6]; M-NFS-60 cell proliferation) [nM]
O[C@@H]1CCCC[C@H]1Nc1nc2ccc(Cn3cnc4cc(C5CC5)cnc43)cc2s1 [Example 45, (1R,2R)-2-((6-((6-cyclopropyl-3H-imidazo[4,5-b]pyridin-3-yl)methyl)benzo[d]thiazol-2-yl)amino)cyclohexanol]	≤ 100	≤ 50	≤ 5	B (0.01<B≤0.02)	200 to 1000						≤ 50	
OC[C@@H]1CCCC[C@H]1Nc1nc2ccc(Cn3cnc4cccnc43)cc2s1 [Example 66, ((1R,2R)-2-((6-((3H-imidazo[4,5-b]pyridin-3-yl)methyl)benzo[d]thiazol-2-yl)amino)cyclohexyl)methanol]	500 to 2000	50 to 500	5 to 20	A (A≤0.01)	> 5000						400 to 1500	
O[C@@H]1Cc2ccccc2[C@H]1Nc1nc2ccc(Cn3cnc4cc(Br)cnc43)cc2o1 [Example 62, (1R,2R)-1-((6-((6-bromo-3H-imidazo[4,5-b]pyridin-3-yl)methyl)benzo[d]oxazol-2-yl)amino)-2,3-dihydro-1H-inden-2-ol]	≤ 100	≤ 50	≤ 5	C (C>0.02)	200 to 1000						≤ 50	
O[C@@H]1CCCC[C@H]1Nc1nc2ccc(Cn3cnc4cc(Cl)cnc43)cc2s1 [Example 55, (1R,2R)-2-((6-((6-chloro-3H-imidazo[4,5-b]pyridin-3-yl)methyl)benzo[d]thiazol-2-yl)amino)cyclohexanol]	≤ 100	≤ 50	5 to 20	B (0.01<B≤0.02)	1000 to 5000						≤ 50	
COc1cc2ncn(Cc3ccc4nc(N[C@@H]5CCCCC[C@H]5O)sc4c3)c2cc1OC (racemic) [Example 50, (±)-2-((6-((5,6-dimethoxy-1H-benzo[d]imidazol-1-yl)methyl)benzo[d]thiazol-2-yl)amino)cycloheptanol]	≤ 100	≤ 50	≤ 5	C (C>0.02)	≤ 200						≤ 50	
COc1cc2ncn(Cc3ccc4nc(N[C@@H]5CCCC[C@H]5O)sc4c3)c2cc1Br [Example 47, (1R,2R)-2-((6-((6-bromo-5-methoxy-1H-benzo[d]imidazol-1-yl)methyl)benzo[d]thiazol-2-yl)amino)cyclohexanol]	≤ 100	50 to 500	5 to 20	B (0.01<B≤0.02)	200 to 1000						≤ 50	
O[C@@H]1Cc2ccccc2[C@H]1Nc1nc2ccc(Cn3cnc4cc(Br)cnc43)cc2s1 [Example 42, (1R,2R)-1-((6-((6-bromo-3H-imidazo[4,5-b]pyridin-3-yl)methyl)benzo[d]thiazol-2-yl)amino)-2,3-dihydro-1H-inden-2-ol]	≤ 100	≤ 50	≤ 5	B (0.01<B≤0.02)	1000 to 5000						50 to 400	
COc1cc2c(cc1-c1cnn(C)c1)ncn2Cc1ccc2nc(N[C@@H]3CCCC[C@H]3O)sc2c1 [Example 51, (1R,2R)-2-((6-((6-methoxy-5-(1-methyl-1H-pyrazol-4-yl)-1H-benzo[d]imidazol-1-yl)methyl)benzo[d]thiazol-2-yl)amino)cyclohexanol]	≤ 100	≤ 50	≤ 5	C (C>0.02)	≤ 200						≤ 50	

Continued, in another order:

Kd [1] [nM]	Kd [2] [nM]	Kd [3] [nM]	Kinase specificity S(10) [4, 7]	Kd [5] [nM]	Kd ([1]; competition binding) [nM]	Kd ([2]; competition binding) [nM]	Kd ([3]; competition binding) [nM]	Kinase specificity S(10) [4, 9]	Kd ([5]; competition binding) [nM]	SMILES	IC50 [6, 8] [nM]	IC50 ([6]; M-NFS-60 cell proliferation) [nM]
500 to 2000	50 to 500	5 to 20	A (A≤0.01)	1000 to 5000						O[C@@H]1CCCC[C@H]1Nc1nc2ccc(Cn3cnc4cc(CN5CCOCC5)cnc43)cc2s1 [Example 82, (1R,2R)-2-((6-((6-(morpholinomethyl)-3H-imidazo[4,5-b]pyridin-3-yl)methyl)benzo[d]thiazol-2-yl)amino)cyclohexanol]	400 to 1500	
					≤ 100	≤ 50	5 to 20	A (A≤0.01)	200 to 1000	O[C@@H]1CCCC[C@H]1Nc1nc2ccc(Cn3cnc4cc(C(F)(F)F)cnc43)cc2s1 [Example 212, (1R,2R)-2-((6-((6-(trifluoromethyl)-3H-imidazo[4,5-b]pyridin-3-yl)methyl)benzo[d]thiazol-2-yl)amino)cyclohexanol]		50 to 400
					100 to 500	50 to 500	5 to 20	B (0.01<B≤0.02)	1000 to 5000	O[C@@H]1CCCC[C@H]1Nc1nc2ccc(Cn3cnc4ccc(Br)cc43)cc2s1 [Example 107, (1R,2R)-2-((6-((6-bromo-1H-benzo[d]imidazol-1-yl)methyl)benzo[d]thiazol-2-yl)amino)cyclohexanol]		50 to 400
					100 to 500	50 to 500	5 to 20	A (A≤0.01)	200 to 1000	O[C@@H]1CCCC[C@H]1Nc1nc2ccc(Cn3cnc4cc(N5CCOCC5)ccc43)cc2s1 [Example 209, (1R,2R)-2-((6-((5-morpholino-1H-benzo[d]imidazol-1-yl)methyl)benzo[d]thiazol-2-yl)amino)cyclohexanol]		50 to 400
					> 2000	> 2000	5 to 20	A (A≤0.01)	> 5000	OC1CCN(c2ccn3c(Cc4ccc5nc(N[C@@H]6CCCC[C@H]6O)sc5c4)cnc3c2)CC1 [Example 199, 1-(3-((2-(((1R,2R)-2-hydroxycyclohexyl)amino)benzo[d]thiazol-6-yl)methyl)imidazo[1,2-a]pyridin-7-yl)piperidin-4-ol]		> 1500
					500 to 2000	50 to 500	5 to 20	A (A≤0.01)	1000 to 5000	O[C@@H]1CCCC[C@H]1Nc1nc2ccc(Cc3cnc4cc(-n5ccnn5)ccn34)cc2s1 [Example 218, (1R,2R)-2-((6-((7-(1H-1,2,3-triazol-1-yl)imidazo[1,2-a]pyridin-3-yl)methyl)benzo[d]thiazol-2-yl)amino)cyclohexanol]		50 to 400
